“And” between values parts separate entries of the source, which are not always exact repeats. Identical values can stand only once.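 Where inhibition never reached the appropriate level, the endpoint shown equals the highest concentration tested. Otherwise, values were interpolated linearly from a five-concentration, 48-hour dose response in 96-well plates. Here, GI50 denotes the concentration required for 50% inhibition of growth. TGI denotes the concentration required for complete inhibition of growth.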
How the values were obtained:
Experiment in all cases: NCI-60 cell line screen, 48 h
[1] = tested on: U251 CNS
[2] = tested on: NCI-H460 lung
[3] = tested on: M14 melanoma
[4] = tested on: CCRF-CEM leukemia
[5] = tested on: BT-549 breast
[6] = tested on: RPMI-8226 leukemia
[7] = tested on: TK-10 renal
[8] = tested on: HCC-2998 colon
[9] = tested on: K-562 leukemia
[10] = tested on: SF-539 CNS

| Compound | TGI [1] | TGI [2] | TGI [3] | TGI [4] | TGI [5] [µM] | TGI [6] | TGI [7] | TGI [8] | TGI [9] | TGI [10] | GI50 [2] [µM] | GI50 [3] [µM] | GI50 [10] [µM] | GI50 [4] [µM] | GI50 [6] | GI50 [7] | GI50 [8] | GI50 [9] [µM] |
| --- | --- | --- | --- | --- | --- | --- | --- | --- | --- | --- | --- | --- | --- | --- | --- | --- | --- | --- |
| C/C(C[n+]1ccccc1)=N\N=C(N)N | > 100 µM | > 100 µM | > 100 µM | > 100 µM | > 100 | > 100 µM | > 100 µM | > 100 µM | > 100 µM | – | – | – | – | – | – | – | – | – |
| CC(O)CNC(=O)C(C)Oc1ccc(OCC2CCCCC2)cc1 (centres undefined) | > 100 µM | > 100 µM | > 100 µM | > 100 µM | – | – | > 100 µM | > 100 µM | > 100 µM | > 100 µM | – | – | – | – | – | – | – | – |
| O=P(O)(O)C(N=C(Nc1ccccc1)Nc1ccccc1)P(=O)(O)O | – | > 100 µM | > 100 µM | – | > 100 | – | > 100 µM | > 100 µM | – | > 100 µM | – | – | – | – | – | – | – | – |
| COc1cnc2c(c1)C(=O)c1c-2n(CCCN2CCOCC2)c(=O)c2cc(Cl)ccc12 | – | > 100 µM | > 100 µM | > 100 µM | – | > 100 µM | > 100 µM | > 100 µM | > 100 µM | 0.65 µM | 0.0701 | 0.323 | 0.23 | 0.12 | 0.426 µM | > 100 µM | > 100 µM | 0.525 |
| Cc1c(O)nc(-n2[nH]c3c(c2=O)CCCC3)[nH]c1=O | > 100 µM | > 100 µM | > 100 µM | > 100 µM | > 100 | > 100 µM | > 100 µM | – | > 100 µM | – | – | – | – | – | – | – | – | – |
| CCOS(C)(=O)=O | > 100 µM | > 100 µM | > 100 µM | > 100 µM | > 100 | – | > 100 µM | > 100 µM | > 100 µM | > 100 µM | – | – | – | – | – | – | – | – |
| CCOC(=O)N1CCC(N[C@@H]2c3cc4c(cc3C(c3cc(OC)c(O)c(OC)c3)C3C(=O)OC[C@@H]32)OCO4)CC1 (some centres undefined) | 6.51 µM and 8.32 µM | 0.887 µM and 2.88 µM | 6.31 µM and 8.14 µM | 18.9 µM and > 25 µM | – | 18.7 µM and > 25 µM | 11.9 µM and 9.5 µM | 6.82 µM and 7.22 µM | 22.4 µM and > 25 µM | 5.78 µM and 4.71 µM | – | – | – | – | 1.46 µM and 4.12 µM | 2.09 µM and 4.27 µM | 1.53 µM and 3.47 µM | – |
| COc1cc2c(cc1OC)C(C(c1ccccc1)c1ccccc1)N(C)CC2 (centres undefined) | > 100 µM | > 100 µM | – | > 100 µM | – | > 100 µM | – | 63.8 µM | > 100 µM | > 100 µM | – | – | – | – | – | – | – | – |
| CCOC(=O)c1c(-c2ccc(O)c(OC)c2)c(C#N)c(=S)n(C2OC(CO)C(O)C(O)C2O)c1-c1ccccc1 (centres undefined) | > 100 µM | > 100 µM | > 100 µM | > 100 µM | – | > 100 µM | – | > 100 µM | > 100 µM | – | – | – | – | – | – | – | – | – |
| Cn1c(SCc2ccc(F)cc2)nnc1C12CC3CC(CC(C3)C1)C2 | > 100 µM | > 100 µM | 71.8 µM | 43.3 µM | – | 82.5 µM | – | > 100 µM | > 100 µM | 65.1 µM | – | – | – | – | – | – | – | – |
| CNc1cc2c(c3ccccc13)C(CCl)CN2C(=O)c1cc2cc(OC)c(OC)c(OC)c2[nH]1 (centres undefined) | 0.133 µM | 0.00226 µM | – | 0.142 µM | 0.0333 | 0.0649 µM | – | – | – | – | – | – | – | – | – | – | – | – |
| COC(C)(C)C1(O)CC[C@@H](C)CC1=O (some centres undefined) | > 100 µM | > 100 µM | > 100 µM | – | > 100 | > 100 µM | > 100 µM | > 100 µM | – | > 100 µM | – | – | – | – | – | – | – | – |
| NS(=O)(=O)c1ccc(NC(=S)/N=C/C2=C(O)c3ccccc3C2=O)cc1 | > 100 µM | > 100 µM | > 100 µM | > 100 µM | – | > 100 µM | > 100 µM | > 100 µM | > 100 µM | > 100 µM | – | – | – | – | – | – | – | – |
| CSC1=N/C(=C\c2ccc(C)cc2)C(=O)N1CN1CCCCC1 | > 100 µM | – | > 100 µM | – | – | > 100 µM | > 100 µM | – | > 100 µM | – | – | – | – | – | – | – | – | – |
| COc1cccc(N2C(Cl)C(=O)C2c2c[nH]c3ccccc23)c1 (centres undefined) | > 100 µM | > 100 µM | > 100 µM | > 100 µM | – | > 100 µM | > 100 µM | – | > 100 µM | – | – | – | – | – | – | – | – | – |
| O=C1CC2(CCC(O)(c3ccc4ccccc4c3)C(C(=O)c3ccc4ccccc4c3)C2)C(=O)c2ccccc2N1 (centres undefined) | > 100 µM | > 100 µM | > 100 µM | > 100 µM | > 100 | – | > 100 µM | > 100 µM | > 100 µM | > 100 µM | – | – | – | – | – | – | – | – |
| O=C1OCC/C1=N/O | > 100 µM | > 100 µM | > 100 µM | > 100 µM | – | > 100 µM | > 100 µM | > 100 µM | > 100 µM | > 100 µM | – | – | – | – | – | – | – | – |
| O=C(O)[C@H]1CCCN1CP(=O)(O)CN1CCC[C@@H]1C(=O)O | > 100 µM | > 100 µM | > 100 µM | > 100 µM | > 100 | – | – | – | > 100 µM | – | – | – | – | – | – | – | – | – |
| CCOc1cc(/C=C2/C(C)=NN(c3cccc(Cl)c3)/C2=N/c2nc3ccccc3s2)ccc1O | 43 µM | 64 µM | 75.5 µM | > 100 µM | – | > 100 µM | > 100 µM | 35.6 µM | > 100 µM | 57 µM | – | – | – | – | – | – | – | – |
| COc1ccc(CCN(C)C2CCC(C#N)(c3ccc(OC)c(OC)c3)CC2)cc1OC (centres undefined) | > 100 µM | > 100 µM | > 100 µM | > 100 µM | – | > 100 µM | > 100 µM | > 100 µM | > 100 µM | > 100 µM | – | – | – | – | – | – | – | – |
| O=C(NCP(=O)(Oc1ccccc1)Oc1ccccc1)OCc1ccccc1 | > 100 µM | > 100 µM | > 100 µM | > 100 µM | > 100 | > 100 µM | > 100 µM | – | > 100 µM | – | – | – | – | – | – | – | – | – |
| O=C1c2ccccc2C(=O)N1n1c(Cc2ccc([N+](=O)[O-])cc2)n[nH]c1=O | > 100 µM | > 100 µM | – | – | > 100 | > 100 µM | > 100 µM | > 100 µM | > 100 µM | > 100 µM | – | – | – | – | – | – | – | – |
| On1c(-c2ccccc2)c(-c2ccccc2N2CCCC2)c2ccccc21 | > 100 µM | > 100 µM | > 100 µM | > 100 µM | – | > 100 µM | > 100 µM | > 100 µM | > 100 µM | > 100 µM | – | – | – | – | – | – | – | – |
| C[N+](C)([O-])CCOc1cc2c(c3ccccc13)-c1ccccc1C2=O | 25.8 µM | 43.2 µM | – | > 83.7 µM | – | 44.1 µM | – | 29.2 µM | > 95.2 µM | 38.4 µM | – | – | – | – | – | – | – | – |
| O=C1C=C/C(=N\N=C(c2ccccc2)c2ccccc2)O1 | – | – | > 10 µM | > 10 µM | – | > 10 µM | > 10 µM | > 10 µM | > 10 µM | – | – | – | – | – | – | – | – | – |

— PubChem BioAssay (NCI)
